Experiments:
SNU354 = test: Cytotoxicity on hepatocellular carcinoma cell line SNU354; format: cell-based
Description: If not otherwise specified, IC50 values were measured by the following experimental methods:
a) Cells were plated for 24 hours, and then the compounds acted singly. 99 μL of growth medium was supplemented per well, and then 1 μL of 200× compound was added, gently shaken to ensure uniform mixing, and then placed in a 37° C., 5% CO2 incubator.
b) The cell plate was placed in the incubator for 72 hours.
b) 100 μL of CTG reagent (CelltiterGlo kit) was added to each well, the plate was placed in a rapid oscillator and shaken for 2 minutes, and then placed at room temperature for 30 minutes away from light.
The IC50 was calculated using GraphPad Prism 8 software and the IC50 (half inhibitory concentration) of the compounds was obtained using the following non-linear fitting formula: […]
Using the same experimental methods as described above, Compounds A, B and C were further tested for cytotoxicity against different hepatocellular carcinoma (HCC) cell lines SNU354, SNU886, MHCC97H and huH-1, and the results were shown in Table 2 below: […]

[1] = system: HuPrime model LU0884 human lung cancer; test: In vivo pharmacodynamics, lung cancer LU0884 PDX model; set-up: species or system BALB/c nude mice; conditions: for T/C (%) / TGI (%) / Relative tumor volume (x ± S) / Tumor volume (x ± S): QWx3, i.v.; for Relative tumor volume (x ± S) / Tumor volume (x ± S): mean ± standard error; for Tumor volume (x ± S): in mm³ (unit assumed)
[2] = Blood-brain barrier assay of Compound A (plasma and brain concentration, PK); format: in vivo, CD-1 mice
Description: Three CD-1 mice were administered 1 mg/kg of the test Compound A intravenously at each time point. Blood and brain tissue were taken at 5 min, 15 min, 1 h, 2 h, 4 h and 8 h after administration.
The PK (Pharmacokinetic) parameters obtained from the above assays were listed as follows, as shown in Table 33 and Table 34. • PK parameters, pharmacokinetic parameters. • T1/2, half-life. • Cl-obs, plasma clearance. • C0, starting concentration. • AUClast, area under the concentration-time curve from start of administration time to the last point. • AUCInf, area under the concentration-time curve from start of administration to the time at infinity. • Tmax, time to maximum observed plasma concentration. • Cmax, concentration to maximum observed plasma concentration. • MRTlnf-obs, represents the mean residence time from the start of administration to the time of theoretical extrapolation to infinity. • AUClnf Ration (Brain/Plasma), the ratio of the area under the concentration-time curve of serum and brain tissue from the start of administration to the time at infinity. • Unit, unit. • Mean, average value.

[3] = Paclitaxel 20 mg/kg, Compound A 2.5, 5, 10 mg/kg

O=[N+]([O-])c1ccc(C(OP(=O)(N2CC2)N2CC2)C(F)(F)F)cc1Oc1ccc(-c2ccc(F)cc2)c(F)c1 (racemic) [Compound A]
IC50 (SNU354; Homo sapiens, SNU-354): 962 nM
ratio A/B (SNU354; IC50 ratio): 1.28
ratio A/C (SNU354; IC50 ratio): 0.63
T/C (%) ([1]; Compound A 2.5 mg/kg, Day 28): 57.85%
TGI (%) ([1]; Compound A 2.5 mg/kg, Day 28): 42.15%
Relative tumor volume (x ± S) ([1]; Compound A 2.5 mg/kg, Day 28): 3.47 ± 0.56
Tumor volume (x ± S) ([1]; Compound A 2.5 mg/kg, Day 28): 360.43 ± 44.42
T/C (%) ([1]; Compound A 5 mg/kg, Day 28): 43.62%
TGI (%) ([1]; Compound A 5 mg/kg, Day 28): 56.38%
Relative tumor volume (x ± S) ([1]; Compound A 5 mg/kg, Day 28): 2.61 ± 0.94
Tumor volume (x ± S) ([1]; Compound A 5 mg/kg, Day 28): 291.60 ± 103.85
T/C (%) ([1]; Compound A 10 mg/kg, Day 28): 63.02%
TGI (%) ([1]; Compound A 10 mg/kg, Day 28): 36.98%
Relative tumor volume (x ± S) ([1]; Compound A 10 mg/kg, Day 28): 3.78 ± 1.19
Tumor volume (x ± S) ([1]; Compound A 10 mg/kg, Day 28): 434.80 ± 160.03
Size of tumor volume ([1]; Group 4, Compound A 2.5 mg/kg, Day 0): 109.86 mm^3
Size of tumor volume ([1]; Group 4, Compound A 2.5 mg/kg, Day 4): 138.21 mm^3
Size of tumor volume ([1]; Group 4, Compound A 2.5 mg/kg, Day 7): 177.96 mm^3
Size of tumor volume ([1]; Group 4, Compound A 2.5 mg/kg, Day 11): 194.38 mm^3
Size of tumor volume ([1]; Group 4, Compound A 2.5 mg/kg, Day 14): 216.81 mm^3
Size of tumor volume ([1]; Group 4, Compound A 2.5 mg/kg, Day 18): 261.94 mm^3
Size of tumor volume ([1]; Group 4, Compound A 2.5 mg/kg, Day 21): 287.79 mm^3
Size of tumor volume ([1]; Group 4, Compound A 2.5 mg/kg, Day 25): 328.61 mm^3
Size of tumor volume ([1]; Group 4, Compound A 2.5 mg/kg, Day 28): 360.43 mm^3
Size of tumor volume ([1]; Group 5, Compound A 5 mg/kg, Day 0): 110.67 mm^3
Size of tumor volume ([1]; Group 5, Compound A 5 mg/kg, Day 4): 173.28 mm^3
Size of tumor volume ([1]; Group 5, Compound A 5 mg/kg, Day 7): 221.81 mm^3
Size of tumor volume ([1]; Group 5, Compound A 5 mg/kg, Day 11): 229.45 mm^3
Size of tumor volume ([1]; Group 5, Compound A 5 mg/kg, Day 14): 236.47 mm^3
Size of tumor volume ([1]; Group 5, Compound A 5 mg/kg, Day 18): 260.75 mm^3
Size of tumor volume ([1]; Group 5, Compound A 5 mg/kg, Day 21): 271.59 mm^3
Size of tumor volume ([1]; Group 5, Compound A 5 mg/kg, Day 25): 289.40 mm^3
Size of tumor volume ([1]; Group 5, Compound A 5 mg/kg, Day 28): 291.60 mm^3
Size of tumor volume ([1]; Group 6, Compound A 10 mg/kg, Day 0): 109.04 mm^3
Size of tumor volume ([1]; Group 6, Compound A 10 mg/kg, Day 4): 202.09 mm^3
Size of tumor volume ([1]; Group 6, Compound A 10 mg/kg, Day 7): 257.40 mm^3
Size of tumor volume ([1]; Group 6, Compound A 10 mg/kg, Day 11): 283.55 mm^3
Size of tumor volume ([1]; Group 6, Compound A 10 mg/kg, Day 14): 293.14 mm^3
Size of tumor volume ([1]; Group 6, Compound A 10 mg/kg, Day 18): 343.92 mm^3
Size of tumor volume ([1]; Group 6, Compound A 10 mg/kg, Day 21): 359.85 mm^3
Size of tumor volume ([1]; Group 6, Compound A 10 mg/kg, Day 25): 411.01 mm^3
Size of tumor volume ([1]; Group 6, Compound A 10 mg/kg, Day 28): 434.80 mm^3
tolerability [1, 3]: well tolerated
tumor inhibitory effect [1, 3]: certain tumor inhibitory effects
blood-brain barrier penetration ([2]; 1 mg/kg intravenously, within 8 hours): can effectively penetrate the blood-brain barrier
concentration at 0.083 h ([2]; CD-1, mouse, brain, iv, 1 mg/kg, IV 1 mg/kg, 0.083 h, individual animals, read-out: Brain concentration): 538 ng/g
concentration at 0.25 h ([2]; CD-1, mouse, brain, iv, 1 mg/kg, IV 1 mg/kg, 0.25 h, individual animals, read-out: Brain concentration): 419 ng/g
concentration at 1 h ([2]; CD-1, mouse, brain, iv, 1 mg/kg, IV 1 mg/kg, 1 h, individual animals, read-out: Brain concentration): 180 ng/g
concentration at 2 h ([2]; CD-1, mouse, brain, iv, 1 mg/kg, IV 1 mg/kg, 2 h, individual animals, read-out: Brain concentration): 107 ng/g
concentration at 4 h ([2]; CD-1, mouse, brain, iv, 1 mg/kg, IV 1 mg/kg, 4 h, individual animals, read-out: Brain concentration): 71.2 ng/g
concentration at 8 h ([2]; CD-1, mouse, brain, iv, 1 mg/kg, IV 1 mg/kg, 8 h, individual animals, read-out: Brain concentration): 23.6 ng/g

From patent publication US20260159536A1, “AKR1C3-ACTIVATED DNA ALKYLATING AGENT, AND MEDICAL APPLICATION THEREOF” (ASCENTAWITS PHARMACEUTICALS, LTD., priority 2021, published 2026)
